The values that follow come from ChEMBL document CHEMBL6120976, “Derivatization of Microcystins Can Increase Target Inhibition while Reducing Cellular Uptake” (J Nat Prod, 2025).

A short description of data set [1]: Selectivity index, ratio of EC50 for cytotoxicity against sodium butyrate-treated HEK293 cells transfected with OATP1B1 to IC50 for inhibition of PP1 (unknown origin). The class given is cell-based.
The nature of data set [2]: Selectivity index, ratio of EC50 for cytotoxicity against sodium butyrate-treated HEK293 cells transfected with OATP1B3 to IC50 for inhibition of PP1 (unknown origin). The class given is cell-based.
The nature of data set [3]: Selectivity index, ratio of EC50 for cytotoxicity against sodium butyrate-treated HEK293 cells transfected with OATP1B1 to EC50 for cytotoxicity against sodium butyrate-treated HEK293 cells transfected with OATP1B3. The class given is cell-based.
Another data set deals with OATP1B3. The data set is described as follows: Cytotoxicity against sodium butyrate-treated HEK293 cells transfected with OATP1B3 incubated for 48 hrs by absorbance based assay. The class given is toxicity, cell-based. To be noted: human.
The nature of data set [4]: Inhibition of PP1 (unknown origin) incubated for 2 hrs by absorbance based assay. Also noted: species or system Homo sapiens.
The subject of a further data set is OATP1B1. The data set is described as follows: Cytotoxicity against sodium butyrate-treated HEK293 cells transfected with OATP1B1 incubated for 48 hrs by absorbance based assay. Type of data set: toxicity, cell-based. Particulars: human.

By EC50 is commonly meant the concentration that produces a half-maximal response. As usually defined, the IC50 is the concentration at which inhibition is half-maximal.

Numbered stars: 1 amine (or outer) side, 2 acyl side, 3 side chain; on linkers, the order of the positions; unused ones are H or OH. Bridge positions count the residues as written; N and C are the ends. Square brackets hold non-standard residues; d marks the D form. Peptide text beside a SMILES is read from it. Adda = CO[C@@H](Cc1ccccc1)[C@@H](C)/C=C(C)/C=C/[C@H](N[*:1])[C@H](C)C(=O)[*:2]; dAsp(3S-Me) = C[C@H](C(=O)[*:3])[C@@H](N[*:1])C(=O)[*:2]; d(γGlu) = O=C(O)[C@@H](CCC(=O)[*:2])N[*:1]; NMeDha = C=C(NC)C(=O)O

On to `C=C1C(=O)N[C@H](C)C(=O)N[C@@H](CC(C)C)C(=O)N[C@@H](C(=O)O)[C@H](C)C(=O)N[C@@H](CCCNC(=N)N)C(=O)N[C@@H](/C=C/C(C)=C/[C@H](C)[C@H](Cc2ccccc2)OC)[C@H](C)C(=O)N[C@@H](C(=O)O)CCC(=O)N1C` [MICROCYSTIN-LR] (R[Adda][d(γGlu)][NMeDha][dA]L[dAsp(3S-Me)]-OH; lactam N-7), for which the figures for the Ratio in data set [1] and in data set [2] were 1.6 and 1.7, respectively. For the same molecule, the Ratio EC50 in data set [3] worked out at 1. The results for the concentration for a half-maximal effect (EC50) at 48 h in the data set with OATP1B3 and in the data set on OATP1B1 were 9.3 nM and 8.8 nM, respectively. The molecule also showed an IC50 in data set [4] of 5.5 nM.
